According to paper PMC6337261, “Short Peptides with Uncleavable Peptide Bond Mimetics as Photoactivatable Caspase-3 Inhibitors” (Molecules, 2019):

Columns and labels:
caspase-3 [1] = experiment: Gel-based competitive ABPP on recombinant caspase-3; assay type: biochemical; settings: 10 μM compound, PBS with 1 mM DTT, fluorescent ABP read-out on gel
Experimental: To check whether our probes function as inhibitors, competitive ABPP [28] was performed. Recombinant caspase-3 was incubated with probes 9a–10c, 11a and 12a with or without irradiation at 365 nm, followed by labeling of residually active caspase-3 with the fluorescent, caspase-directed activity-based probe (ABP) SV149, a tetramethylrhodamine derivative of KMB-01 [29]. Caspase activity itself was not affected by UV irradiation, as shown by bands of equal intensity with and without UV light (Figure 2A). […] To confirm inhibition, we also performed substrate cleavage assays using the fluorogenic aminomethyl coumarin substrate Ac-DEVD-AMC. […] Inhibition of active caspases could also be achieved in an apoptotic cell lysate (Figure 2D).
Caspase-3, produced in E. coli and purified as described before, was reacted in PBS with 1 mM DTT. Samples were combined with the indicated probe and irradiated with a handheld UV lamp at 365 nm for 30 min at room temperature. For competition experiments with ‘pre-activation,’ the indicated probes were irradiated for 30 min prior to addition to caspase-3, and incubated for an additional 30 min. Next, ABP 13 was added (final concentration 1 μM) to label residual caspase-3 activity. The samples were incubated for 30 min at room temperature, after which 1/3rd volume of 4× Laemmli buffer was added. Samples were heated at 95 °C for 2 min and resolved by 15% SDS-PAGE. Gels were scanned using a Typhoon Trio+ fluorescent scanner with excitation at 532 nm and an emission filter of 580 nm. Gel images were processed with ImageJ (background subtraction with rolling ball radius of 50 pixels and automated contrast adjustment).
Figure 2 Inhibition of caspase-3. (A) Competitive activity-based protein profiling (ABPP) experiments using ψ(CH2NH) or triazolo peptide derivatives 9–12 with or without irradiation. Compounds 9a–12a were used at 10 μM final concentration, 9b, 9c, 10b and 10c at 100 μM. Inh = caspase inhibitor biotin-DEVD-AOMK, used at 100 nM concentration. (B) Representative progress curves of fluorescence produced by Ac-DEVD-AMC (50 μM) cleavage by caspase-3, irradiated with or without 10 μM of the indicated compounds. (C) Bar graph of residual caspase-3 activity of replicate experiments (n = 2) of those in (B). (D) Inhibition of executioner’s caspase-3 and -7 in lysates of HEK293 cells, treated with cytochrome c/dATP to induce apoptosis.

caspase-3 [2] = experiment: ESI-MS on purified caspase-3 (covalent modification); assay type: binding; settings: 10a under irradiation at 365 nm
Text: Our probes were designed to irreversibly photocrosslink to caspase-3. In order to show covalent complex formation, we made use of the alkyne function located at the N-terminus of all probes by installing a tetramethyl rhodamine fluorophore (TAMRA) via copper(I)-catalyzed azide alkyne cycloaddition. […] To exclude that this observation was due to our gel-based read-out, we also performed mass spectrometry experiments. […] This mass shift corresponded to the covalent modification (Figure 3C).
Intact proteins were analyzed on an orbitrap Fusion Lumos mass spectrometer equipped with a nanoelectrospray ion source (Thermo Fischer, Dreieich, Germany). Sample desalting was performed using Amicon Ultra-0.5 3K NMWL centrifugal filters (Merck Millipore, Darmstadt, Germany) according to the manufacturer’s protocol and samples were brought to a final concentration of approx. 1 pmol/µL (in 25% MeOH and 0.5% formic acid). […]
Figure 3 Non-covalent inhibition of caspase-3 by compounds 9 and 10. […] (G) UV irradiation of ψ(CH2NH) peptides 14 and 15 in the presence of benzophenone leads to inhibition of caspase-3, as monitored by competitive ABPP. […] Ac-DEVD-aldehyde (100 nM) was used as a control compound, whereas 9a and 10a (10 μM) were irradiated for 10 min and reacted with sodium bisulfite for an additional 20 min before 30 min incubation with caspase-3 and read-out with a fluorescent caspase ABP.

caspase-3 [3] = experiment: Competitive ABPP with bisulfite aldehyde quenching; assay type: biochemical; settings: 10 μM, irradiated 10 min, reacted with 10 mM NaHSO3 for 20 min, then 30 min with caspase-3, fluorescent ABP read-out
Text: The presence of a ψ(CH2NH) peptide with benzophenone or UV irradiation alone was not sufficient for inhibition, but all needed to be present to block the caspase-3 active site (Figure 3G,H). We hypothesized that the active species is a peptide aldehyde, formed by oxidation of the ψ(CH2NH) moiety (see also discussion in Section 3). To support this hypothesis, we performed an experiment in which this aldehyde was trapped by sodium bisulfite, forming a sodium bisulfite adduct.
Compounds were incubated with or without irradiation (10 min) in PBS with or without 10 mM NaHSO3 and incubated for another 20 min before addition to caspase-3. After 30 min, ABP 13 was added (final concentration 1 μM) to label residual caspase activity. The samples were incubated for 30 min at room temperature, after which 1/3rd volume of 4× Laemmli buffer was added. Samples were processed in the same way as under Section 4.4.1.
Figure 3 Non-covalent inhibition of caspase-3 by compounds 9 and 10. (A) Fluorescent labeling of caspase-3 by ψ(CH2NH) peptides 9–10 and triazolo peptides 11–12. […] (B) Deconvoluted ESI-MS of caspase-3. (C) Deconvoluted ESI-MS of caspase-3 after incubation with covalent activity-based probe (ABP) 13. Note that the active site, located on the large subunit, is modified. (D) Deconvoluted ESI-MS of caspase-3 after irradiation in the presence of benzophenone ψ(CH2NH) 10a, not resulting in covalent modification. […] (F) Structures of ψ(CH2NH) peptides 14 and 15 without photocrosslinker. (G) UV irradiation of ψ(CH2NH) peptides 14 and 15 in the presence of benzophenone leads to inhibition of caspase-3, as monitored by competitive ABPP. […] Ac-DEVD-aldehyde (100 nM) was used as a control compound, whereas 9a and 10a (10 μM) were irradiated for 10 min and reacted with sodium bisulfite for an additional 20 min before 30 min incubation with caspase-3 and read-out with a fluorescent caspase ABP.

Inhibition of caspase-3 activity (caspase ABP labeling) (caspase-3 [1]; irradiated at 365 nm for 30 min at room temperature): complete inhibition
Inhibition of caspase-3 activity (caspase ABP labeling) (caspase-3 [1]; non-irradiated): no decrease in caspase ABP labeling
Covalent modification of caspase-3 (mass shift, ESI-MS) (caspase-3 [2]): did not reveal any modification
Inhibition of caspase-3 by irradiated sample exposed to sodium bisulfite (caspase-3 [3]): lose their inhibitory capacity
Substance: Hexynoyl-Asp-Glu-Val-Aspψ(CH2NH)-Ala-Bpa-NH2 [10a]
